Experimental data taken from patent publication US9622996B2, “Use of adrenergic beta-E-receptor blockers in cancer treatment” (priority 2012, dated 2017).

Legend:
[1] = tested on: rat myocardial infarction models; assay: Rat myocardial infarction (heart failure) model, ligation of left coronary artery; assay type: in vivo; conditions: 1 mg/kg/day intraperitoneal, 4 weeks
Procedure: In rat myocardial infarction models, activation of the β-3 receptor could increase level of SIRT1 in cardiomyocyte, inhibit expression of p53, improve the cardiac function and achieve anti-apoptosis effect. The myocardial infarction model was created by ligation of anterior descending branch of rat left coronary artery. BRL37344 was intraperitoneally injected at 1 mg/kg/day, and heart B-ultrasonography was performed after 4 weeks. Heart tissue was determined for apoptosis (tunel method) and expression levels of SIRT1 and p53 (western blot). The ratio of left ventricular weight to body weight (LVW/BW) is determined. It can be seen from the results shown in FIGS. 3 to 5, that BRL37344 decreases p53 expression, cardiac cell apoptosis, and value of LVW/BW of heart failure rat, increases SIRT1 expression, alleviate cardiac hypertrophy and improve cardiac function.

[2] = tested on: adipose-derived stem cells of rats; assay: β-Galactosidase staining of adipose-derived stem cells; assay type: cell-based, rat; conditions: 10^−7M, 24 h, compared with SR59230A
Procedure: Blockage of the β-3 receptor could increase level of β-galactosidase in adipose-derived stem cells and promote stem cell aging. BRL37344 and SR59230A were used to treat adipose-derived stem cells of rats each at 10^−7M. After 24 h, cells were fixed using paraformaldehyde, and stained and photographed according to the specification of β-Galactosidase Staining Kit. BRL37344 decreased the level of β-galactosidase in adipose-derived stem cells when compared with SR59230A, indicating agonisting of adrenergic β3 receptors of adipose-derived stem cells achieves anti-aging effect.

rat cardiomyocyte = assay: Western blot of mTOR and Rictor proteins (mTOR/Rictor complex); assay type: cell-based; conditions: 10^−7M, 24 h, compared to the control shRNA
Procedure: Activation of the β3 receptor could increase mTOR/Rictor complex in MCF-7 cells. shRNA of β3 adrenergic receptor, control shRNA, BRL37344 and SR59230A were used to treat rat cardiomyocyte each at 10^−7M. After 24 h, total protein was extracted and subjected to western blot to determine the expression amount of mTOR and Rictor proteins.

[3] = tested on: cardiac fibroblast of rats; assay: mTOR/α-Tubulin and Rictor/α-Tubulin double staining in cardiac fibroblast; assay type: cell-based, rat; conditions: 10^−7M, confocal microscope
Text: Beta-3 receptor promoted binding of mTORC2 to α-Tubulin in spindle apparatus. BRL37344 was used to treat cardiac fibroblast of rats at 10^−7M. The cells were undergone mTOR/α-Tubulin immunohistochemical double staining and Rictor/α-Tubulin immunohistochemical double staining, and observed under confocal microscope.

MCF-7 cells = assay: Western blot of p53 and SIRT1 in MCF-7 cells treated with SR59230A; assay type: cell-based; conditions: 24 h, with increasing SR59230A concentration
Procedure: MCF-7 cells were treated with SR59230A at different concentrations. After 24 h, the cells were lysed to extract total protein. The protein concentration was determined by BCA method. 10 μg of the protein was used to perform 10% SDS PAGE, and then transferred to a PVDF membrane. The membrane was blocked for 1 h with TBST (10 mmol/L Tris HCl, pH 7.5, 150 mmol/L NaCl, 0.1% Tween 20) containing 4% fat-free milk, and incubated overnight with p53 antibody (1:1000) and SIRT1 antibody (1:1000) at 4° C. The membrane was further incubated with secondary antibodies for 1 h after washing, followed by ECL color development. The same procedure was repeated 3 times. The gray values of protein bands were obtained through Fluorchem 8900 software and the ratio of target band to reference band (GAPDH) was calculated. Results are shown in FIGS. 1 and 2, wherein the expression level of p53 was increased as the increase of SR59230A concentration, while SIRT1 was decreased.

MCF-7 implant tumor = MCF-7 implant tumor model in nude mice; assay type: in vivo
Procedure: SR59230A reduced implant tumor volume in MCF-7 nude mice. 10^7 of MCF-7 cells were subcutaneously injected into 5-week old female nude mice to establish implant tumor model. 10 days followed the injection, tumor volume increased to about 250 mm^3. The mice were randomly divided into two groups with each group having 8 mice. The treatment group was peritoneally injected with SR56230A at 100 nmol for each mouse. The injection was carried every two days and lasted for 5 weeks. The control group is administrated with solvents with same volume. The length, width and height of tumors were determined using a vernier caliper prior to each administration, so as to calculate tumor volume. The tumor growth curve was shown in FIG. 8, in which SR59230A treated mice had slower implant tumor growth rat when compared to control group (FIG. 9). […] In order to determine expression levels of phospho-4E-BP1(Thr37/46) and p62, the tumor tissue was obtained for paraffin embedding and section and then immunohistochemistry, and proteins were extracted from the tumor tissue for Western blot.

[4] = tested on: MCF-7 breast carcinoma cells; assay: Annexin V/PI flow cytometry, apoptosis and cell cycle of MCF-7 cells; assay type: cell-based; conditions: P<0.01
Procedure: (§1) A target sequence was selected from the DNA sequence of β3AR gene using computer program. The DNA fragment of the target sequence was synthesized and cloned on a vector. Human U6 promoter was cloned to pcDNA3/neo vector to clone DNA fragment of shRNA. The plasmid vector was tranfected into cells using lipofection2000. 48 h following the tranfection, siRNA was expressed in the cells. The cells were subjected to Annexin V/PI double staining. Apoptosis rate was determined by flow cytometry.

H1975 lung cancer cells = assay: Apoptosis of H1975 lung cancer cells; assay type: cell-based
Procedure: as §1

H1299 lung cancer cells = assay: Apoptosis of H1299 lung cancer cells; assay type: cell-based
Procedure: as §1

HL-60 leukaemia cells = assay: miR-16-1/miR-15a expression, apoptosis and mitochondrial readouts in HL-60 cells; assay type: cell-based; conditions: HL-60, 10^−7M
Procedure: (§2) SR59230A promoted cell apoptosis by increase expression of miR-16-1 and miR-15a in HL-60 and K562 leukaemia cells. SR59230A at 10^−7M was used to treat HL-60 and K562 leukaemia cells. 8 h following the treatment, total microRNA was extract and then reversely transcribed for quantitative PCR to determine the expression of miR-16-1 and miR-15a. Flow cytometry was used to detect earlier cell apoptosis label Annexin V/PI and apoptosis rate. MitoTracker Red CMXRos was used to detect number of mitochondrion. JC1 was used to determine mitochondrial membrane potential. Autophagosome was determined by monodansylcadaverine (MDC) staining, and observed and countered under transmission electron microscope. Intracellular ATP level was determined by ATP Kit. […] SR59230A could decrease mitochondrial membrane potential of HL-60 and K562 cells, induce mitophagy, decrease mitochondrial content and reduce intracellular ATP level.

K562 leukaemia cells = assay: miR-16-1/miR-15a expression, apoptosis and mitochondrial readouts in K562 cells; assay type: cell-based; conditions: K562, 10^−7M
Procedure: as §2

MCF7 cells = assay: Mitochondrial autophagy in MCF7 cells (MitoTracker, LC3II Western blot); assay type: cell-based; conditions: MCF7, 10^−7M, 18 h
Procedure: β3 receptor regulated mitochondrial autophagy. MCF7 cells were treated by SR59230A (10^−7M) for 18 h. MitoTracker was used to label mitochondrion at 37° C. for 20 min. The cells were washed with PBS for 3 times and fluorescent detection was then carried out by fluorescent confocal microscopy and flow cytometry. The autophagy labeling protein LC3II was measured by Western blot.

[5] = tested on: multidrug resistance-associated protein 1 (MRP1); assay: 5-CFDA (MRP1 substrate) efflux staining in PC-3 cells; assay type: cell-based, Human; conditions: PC-3, 10^−7M, 18 h, confocal microscopy
Procedure: Beta-3 receptor activated multidrug resistance-associated protein 1 (MRP1). Human prostatic cancer cells PC-3 was used to be treated with SR59230A and BRL37344, each at 10^−7M, for 18 h and then stained with substrate of MRP1, 5-CFDA and observed under confocal microscopy.

[6] = tested on: prostatic cancer cells PC-3; assay: Autophagy of prostatic cancer cells PC-3 (FIG. 17); assay type: cell-based, Human; conditions: FIG. 17 legend only
[7] = 100 nmol per mouse peritoneally every two days for 5 weeks
[8] = tumor tissue, immunohistochemistry and Western blot
[9] = 8 h, quantitative PCR, compared to control
[10] = Annexin V/PI flow cytometry, P<0.01

C[C@H](Cc1ccc(OCC(=O)O)cc1)NC[C@H](O)c1cccc(Cl)c1 [BRL37344]
cardiac hypertrophy [1]: alleviate
ratio of left ventricular weight to body weight (LVW/BW) [1]: decreases
cardiac function ([1]; heart B-ultrasonography): improve
cardiac cell apoptosis ([1]; tunel method): decreases
SIRT1 expression in heart tissue ([1]; western blot): increases
p53 expression in heart tissue ([1]; western blot): decreases
level of β-galactosidase [2]: decreased
mTOR/Rictor complex (rat cardiomyocyte): increased
binding of Rictor to α-Tubulin [3]: promoted
binding of mTOR to α-Tubulin in spindle apparatus [3]: promoted

CCc1ccccc1OC[C@@H](O)CN[C@H]1CCCc2ccccc21 [SR59230A]
expression level of SIRT1 (MCF-7 cells): decreased
expression level of p53 (MCF-7 cells): increased
relative tumor growth rate T/C (%) (MCF-7 implant tumor; [7]): 39.80%
tumor inhibition rate (MCF-7 implant tumor; [7]): 57.97%
tumor volume based on the control group (MCF-7 implant tumor; [7]): 42.03%
implant tumor growth rate compared to control group (MCF-7 implant tumor; 100 nmol per mouse peritoneally every two days for 5 weeks, tumor growth curve): slower
glycolysis in tumors (MCF-7 implant tumor; PET/CT detection): inhibited
expression of p62 (MCF-7 implant tumor; [8]): reduced
expression of phospho-4E-BP1 (MCF-7 implant tumor; [8]): reduced
mTOR activity in tumors (MCF-7 implant tumor; [8]): inhibited
mitophagy in tumor cells (MCF-7 implant tumor; tumor tissue, transmission electron microscope): enhanced
apoptosis rate versus control group [4]: significant increase
apoptosis of H1975 cells (H1975 lung cancer cells): promoted apoptosis
apoptosis of H1299 cells (H1299 lung cancer cells): promoted apoptosis
mitophagy (HL-60 leukaemia cells): induce
expression of miR-15a (HL-60 leukaemia cells; [9]): significantly increased
expression of miR-16-1 (HL-60 leukaemia cells; [9]): significantly increased
intracellular ATP level (HL-60 leukaemia cells; ATP Kit): reduce
apoptosis rate (HL-60 leukaemia cells; [10]): increased
mitochondrial membrane potential (HL-60 leukaemia cells; JC1): decrease
mitochondrial content (HL-60 leukaemia cells; MitoTracker Red CMXRos): decrease
mitophagy (K562 leukaemia cells): induce
expression of miR-15a (K562 leukaemia cells; [9]): significantly increased
expression of miR-16-1 (K562 leukaemia cells; [9]): significantly increased
intracellular ATP level (K562 leukaemia cells; ATP Kit): reduce
apoptosis rate (K562 leukaemia cells; [10]): increased
mitochondrial membrane potential (K562 leukaemia cells; JC1): decrease
mitochondrial content (K562 leukaemia cells; MitoTracker Red CMXRos): decrease
autophagosome (MCF7 cells): increased
mitochondrion amount (MCF7 cells; MitoTracker): significantly decreased
LC3II expression (MCF7 cells; Western blot): increased
5-CFDA efflux (MRP1 substrate) [5]: inhibited
autophagy of prostatic cancer cells PC-3 [6]: increased
